Earlier results on 1 compound are cited in patent US20160310552A1, “NORTHERN WHITE KIDNEY BEAN EXTRACT AND CERATONIA SILIQUA EXTRACT IN COMBINATION WITH GREEN TEA EXTRACT IN THE TREATMENT OF EXCESS WEIGHT AND OBESITY” (priority 2015, published 2016).

The conditions of data set [1]: during a 12 month period.
The conditions of data set [2]: preliminary data; 10% with placebo.

For `CC(C)CC(N(C)C)C1(c2ccc(Cl)cc2)CCC1` (centres unmarked) [sibutramine], the Weight loss in data set [1] was 5-10%. In addition, the “Subjects who died or had a heart attack, a stroke or cardiac arrest” value in data set [2] is on record as 11.4%.
